# Results: patent publication US8754209B2, “Indazole derivatives or pharmaceutically acceptable salts thereof as protein kinase inhibitors for proliferative diseases treatment, and a pharmaceutical composition containing the same as an active ingredient” (Korea Institute of Science and Technology, priority 2009, dated 2014)
# Key:
# A375P cells = test: Anti-proliferative activity on A375P cell line (MTT assay); assay type: cell-based; settings: A375P human melanoma cell line
# Protocol: A375P cells were purchased from American Type Culture Collection (ATCC, Rockville, Md., US) and maintained in DMEM medium (Welgene, Daegu, Korea) supplemented with 10% FBS (Welgene) and 1% penicillin/streptomycin (Welgene) in a humidified atmosphere with 5% CO2 at 37° C. The A375P cells were taken from culture substrate with 0.05% trypsin-0.02% EDTA and plated at a density of 5×10^3 cells/well in 96 well plates and then incubated at 37° C. for 24 h in a humidified atmosphere with 5% CO2 prior to treatment of various concentration (three fold serial dilution, 12 points) of test compounds. The A357P cell viability was assessed by the conventional 3-(4,5-dimethylthiazol-2-yl)-2,5-diphenyltetrazolium bromide (MTT) reduction assay. MTT assays were carried out with CellTiter 96 (Promega) according to the manufacturer's instructions.
# After 1 day, 0.5 μl the representative compounds of the examples were added thereto. The representative compounds of the examples were prepared by three fold serial dilution of 10 mM stock solution in DMSO, 12 point (final conc. DMSO 0.5%). Then, 15 μl dye was added in each well. After 2 h, 100 μl stop solution was added each well. After 24 h, absorbance was measured. The absorbance at 590 nm was recorded using EnVision2103 (PerkinElmer; Boston, Mass., US). The IC50 value was calculated using GraphPad Prism 4.0 software.
# B-Raf-V600E = B-Raf-V600E (Homo sapiens, UniProt P15056, V600E); test: B-Raf kinase enzyme assay (MEK1/Erk2 cascade, MBP phosphorylation, 32P); assay type: biochemical; settings: read-out: b-raf-V600Ekinase inhibitory activity (IC50)
# Protocol: <1-1> Activation of MAP Kinase 2/Erk2 by B-raf
# 10 μl magnesium chloride/ATP solution (500 uM ATP, 75 mM magnesium chloride) was seeded in eppendorf tube. 2.5 μl B-Raf-V600E was seed (final conc. 1 ng) in eppendorf tube and treated with 1.6 μl deactivated MEK1 (final conc. 0.4 μg). The mixture was treated with 4 μl deactivated MAP kinase 2/Erk2 (final conc. 1.0 ug). And the mixture was treated with 1 μl example solution (10 mM) dissolved in dimethyl sulfoxide which was orderly diluted. Then, assay dilution buffer I (ADBI I) was added thereto (final vol. 38 μl) to make the final volume of 38 μl, and made it reacted at 30° C. for 30 min. 5 μl of resulting solution was used for the following experiment.
# <1-2> Phosphorylation of Myelin basic protein (MBP)
# 5 μl of the above resulting solution was treated with 10 μl assay dilution buffer, and then treated with 10 μl Myelin basic protein (MBP, 2 mg/Ml). The mixture solution was treated with 10 μl of diluted (1/10) [γ^32P] ATP (100 uCi/vial) which is diluted at 30° C. for 10 min. 25 μl of the mixture solution was spotted onto a P81 paper, and the paper was washed four times with 0.75% phosphoric acid for 10 min and once with acetone for 5 min in scintillation vial. After 5 Ml of scintillation cocktail solution was added in the scintillation vial, signals were analyzed by scintillation counter.
# B-Raf-V600E, sequence (P15056 whole entry V600E): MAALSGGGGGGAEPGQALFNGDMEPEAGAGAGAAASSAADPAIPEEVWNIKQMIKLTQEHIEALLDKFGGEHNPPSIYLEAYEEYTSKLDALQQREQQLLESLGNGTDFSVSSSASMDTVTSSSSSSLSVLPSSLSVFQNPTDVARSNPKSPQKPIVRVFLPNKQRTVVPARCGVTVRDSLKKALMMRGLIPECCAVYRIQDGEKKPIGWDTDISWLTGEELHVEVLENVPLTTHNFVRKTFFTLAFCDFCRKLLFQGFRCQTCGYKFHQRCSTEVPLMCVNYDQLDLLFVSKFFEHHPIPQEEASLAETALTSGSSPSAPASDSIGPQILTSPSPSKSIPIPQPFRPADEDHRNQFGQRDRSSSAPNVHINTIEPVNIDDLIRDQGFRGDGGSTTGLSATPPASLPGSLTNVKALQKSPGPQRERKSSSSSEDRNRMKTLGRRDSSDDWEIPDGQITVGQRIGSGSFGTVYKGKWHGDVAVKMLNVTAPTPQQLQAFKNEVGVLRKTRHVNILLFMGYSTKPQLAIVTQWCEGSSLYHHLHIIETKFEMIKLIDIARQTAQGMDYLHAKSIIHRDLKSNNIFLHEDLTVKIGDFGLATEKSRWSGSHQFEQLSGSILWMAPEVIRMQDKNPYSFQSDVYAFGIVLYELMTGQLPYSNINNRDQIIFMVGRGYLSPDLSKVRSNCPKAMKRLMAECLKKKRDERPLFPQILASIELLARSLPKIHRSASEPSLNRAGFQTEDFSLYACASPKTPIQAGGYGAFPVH
GI50 (A375P cells) [µM],IC50 (B-Raf-V600E) [µM],Structure (SMILES)
< 10,< 10,"CCOC(=O)c1n[nH]c2cc(-c3ccc(NC(=O)c4cnn(-c5ccc(OC)cc5)c4C(F)(F)F)cc3)ccc12 [Example 8, ethyl 6-(4-(1-(4-methoxyphenyl)-5-(trifluoromethyl)-1H-pyrazole-4-carboxamido)phenyl)-1H-indazole-3-carboxylate]"
,< 10,"CCOC(=O)c1n[nH]c2cc(-c3ccc(NC(=O)c4csc(-c5ccncc5)n4)cc3)ccc12 [Example 17, ethyl 6-(4-(2-(pyridin-4-yl)thiazole-4-carboxamido)phenyl)-1H-indazole-3-carboxylate]"
< 10,< 10,"CCOC(=O)c1n[nH]c2cc(-c3ccc(NC(=O)Nc4ccc(Cl)c(C(F)(F)F)c4)cc3)ccc12 [Example 21, ethyl 6-(4-(3-(4-chloro-3-(trifluoromethyl)phenyl)ureido)phenyl)-1H-indazole-3-carboxylate]"
< 10,< 10,"CCOC(=O)c1n[nH]c2cc(-c3cccc(NC(=O)Cc4ccc(OC)c(OC)c4)c3)ccc12 [Example 48, ethyl 6-(3-(2-(3,4-dimethoxyphenyl)acetamido)phenyl)-1H-indazole-3-carboxylate]"
< 10,< 10,"CCOC(=O)c1n[nH]c2cc(-c3cc(NC(=O)Nc4ccc(Cl)c(C(F)(F)F)c4)ccc3C)ccc12 [Example 57, ethyl 6-(5-(3-(4-chloro-3-(trifluoromethyl)phenyl)ureido)-2-methylphenyl)-1H-indazole-3-carboxylate]"
< 10,,"Cc1ccc(NC(=O)Nc2ccc(Cl)c(C(F)(F)F)c2)cc1-c1ccc2c(C(=O)NCCN(C)C)n[nH]c2c1 [Example 65, 6-(5-(3-(4-chloro-3-(trifluoromethyl)phenyl)ureido)-2-methylphenyl)-N-(2-(dimethylamino)ethyl)-1H-indazole-3-carboxamide]"
< 10,,"CCOC(=O)c1n[nH]c2cc(-c3cccc(NC(=O)Nc4ccc(CN5CCN(CC)CC5)c(C(F)(F)F)c4)c3)ccc12 [Example 69, ethyl 6-(3-(3-(4-((4-ethylpiperazin-1-yl)methyl)-3-(trifluoromethyl)phenyl)ureido)phenyl)-1H-indazole-3-carboxylate]"
< 10,,"O=C(Nc1ccc(-c2ccc3[nH]nc(C(=O)NCCN4CCOCC4)c3c2)cc1)Nc1ccc(Cl)c(C(F)(F)F)c1 [Example 72, 5-(4-(3-(4-chloro-3-(trifluoromethyl)phenyl)ureido)phenyl)-N-(2-morpholinoethyl)-1H-indazole-3-carboxamide]"
< 10,,"CCOC(=O)c1n[nH]c2cc(-c3cccc(NC(=O)c4cc(N5CCC(O)CC5)cc(C(F)(F)F)c4)c3)ccc12 [Example 76, ethyl 6-(3-(3-(4-hydroxypiperidin-1-yl)-5-(trifluoromethyl)benzamido)phenyl)-1H-indazole-3-carboxylate]"
< 10,,"O=C(Nc1cccc(-c2ccc3c(C(=O)NCCN4CCOCC4)n[nH]c3c2)c1)c1cc(N2CCC(O)CC2)cc(C(F)(F)F)c1 [Example 77, 6-(3-(3-(4-hydroxypiperidin-1-yl)-5-(trifluoromethyl)benzamido)phenyl)-N-(2-morpholinoethyl)-1H-indazole-3-carboxamide]"

# Second part, the compound before the results:
Structure (SMILES),GI50 (A375P cells) [µM],IC50 (B-Raf-V600E) [µM]
"CNC(=O)c1n[nH]c2cc(-c3ccc(NC(=O)c4cccc(C(F)(F)F)c4)cc3)ccc12 [Example 24, N-methyl-6-(4-(3-(trifluoromethyl)benzamido)phenyl)-1H-indazole-3-carboxamide]",< 10,< 10
"O=C(Nc1cccc(-c2ccc3c(C(=O)NCCN4CCOCC4)n[nH]c3c2)c1)c1cccc(C(F)(F)F)c1 [Example 50, N-(2-morpholinoethyl)-6-(3-(3-(trifluoromethyl)benzamido)phenyl)-1H-indazole-3-carboxamide]",,< 10
"CCOC(=O)c1n[nH]c2cc(-c3cccc(NC(=O)Nc4cccc(Cl)c4Cl)c3)ccc12 [Example 54, ethyl 6-(3-(3-(2,3-dichlorophenyl)ureido)phenyl)-1H-indazole-3-carboxylate]",< 10,< 10
"O=C(Nc1cccc(-c2ccc3c(C(=O)NCCN4CCOCC4)n[nH]c3c2)c1)Nc1ccc(Cl)c(C(F)(F)F)c1 [Example 58, 6-(3-(3-(4-chloro-3-(trifluoromethyl)phenyl)ureido)phenyl)-N-(2-morpholinoethyl)-1H-indazole-3-carboxamide]",< 10,< 10
"Cc1ccc(NC(=O)Nc2ccc(Cl)c(C(F)(F)F)c2)cc1-c1ccc2c(C(=O)NC3CC3)n[nH]c2c1 [Example 66, 6-(5-(3-(4-chloro-3-(trifluoromethyl)phenyl)ureido)-2-methylphenyl)-N-cyclopropyl-1H-indazole-3-carboxamide]",< 10,
"Cc1ccc(NC(=O)c2cccc(C(F)(F)F)c2)cc1-c1ccc2c(C(=O)NCCN3CCOCC3)n[nH]c2c1 [Example 67, 6-(2-methyl-5-(3-(trifluoromethyl)benzamido)phenyl)-N-(2-morpholinoethyl)-1H-indazole-3-carboxamide]",< 10,
"CCOC(=O)c1n[nH]c2cc(-c3cccc(NS(=O)(=O)c4cccc(C(F)(F)F)c4)c3)ccc12 [Example 68, ethyl 6-(3-(3-(trifluoromethyl)phenylsulfonamido)phenyl)-1H-indazole-3-carboxylate]",< 10,
"COC(=O)c1n[nH]c2cc(-c3cccc(NC(=O)Nc4ccc(N5CCN(C)CC5)c(C(F)(F)F)c4)c3)ccc12 [Example 70, methyl 6-(3-(3-(4-(4-methylpiperazin-1-yl)-3-(trifluoromethyl)phenyl)ureido)phenyl)-1H-indazole-3-carboxylate]",< 10,
"CCOC(=O)c1n[nH]c2cc(-c3cc(NC(=O)Nc4ccc(N5CCN(C)CC5)c(C(F)(F)F)c4)ccc3C)ccc12 [Example 71, ethyl 6-(2-methyl-5-(3-(4-(4-methylpiperazin-1-yl)-3-(trifluoromethyl)phenyl)ureido)phenyl)-1H-indazole-3-carboxylate]",< 10,
"CNC(=O)c1n[nH]c2cc(-c3cc(NC(=O)c4cc(-n5cnc(C)c5)cc(C(F)(F)F)c4)ccc3C)ccc12 [Example 73, N-methyl-6-(2-methyl-5-(3-(4-methyl-1H-imidazol-1-yl)-5-(trifluoromethyl)benzamido)phenyl)-1H-indazole-3-carboxamide]",< 10,
"CNC(=O)c1n[nH]c2cc(-c3cc(NC(=O)Nc4cc(-n5cnc(C)c5)cc(C(F)(F)F)c4)ccc3C)ccc12 [Example 75, N-methyl-6-(2-methyl-5-(3-(3-(4-methyl-1H-imidazol-1-yl)-5-(trifluoromethyl)phenyl)ureido)phenyl)-1H-indazole-3-carboxamide]",< 10,
"COC(=O)c1n[nH]c2cc(-c3cccc(NC(=O)c4ccc(OC5CCN(C)CC5)c(C(F)(F)F)c4)c3)ccc12 [Example 78, methyl 6-(3-(4-(1-methylpiperidin-4-yloxy)-3-(trifluoromethyl)benzamido)phenyl)-1H-indazole-3-carboxylate]",< 10,
"O=C(Nc1cccc(-c2ccc3c(CO)n[nH]c3c2)c1)Nc1ccc(Cl)c(C(F)(F)F)c1 [Example 79, 1-(4-chloro-3-(trifluoromethyl)phenyl)-3-(3-(3-(hydroxymethyl)-1H-indazol-6-yl)phenyl)urea]",< 10,< 10
